According to patent US9944607B2, “Thiohydantoin derivatives and uses thereof” (Whitehead Institute for Biomedical Research, priority 2012, dated 2018):
pIC50: −log10 of the molar value. Read-outs that look alike come from different tables or passages of the source. One block for each compound: values may come before it.

What was measured:
Candida albicans CaCi-17 = test: Primary assay: C. albicans CaCi-17 growth inhibition (Alamar Blue); format: cell-based; settings: for pIC50 / IC50: Candida albicans; for IC50: read-out: Growth Inhibition Activity, IC50 (μM), C. albicans (n = 3) CaCi-17
[1] = system: NIH-3T3 mammalian fibroblasts; test: Counterscreen mammalian cell toxicity assay (Alamar Blue); format: cell-based, murine
Summary of the method: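 Quiescent NIH-3T3 fibroblasts, cultured overnight, exposed to 100 nL pinned compound for 48 h at 37° C, 5% CO2. Alamar Blue added to 1:200 final, 2-3 h further incubation; fluorescence (RFU) read as relative cell growth.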

C. glabrata (ATCC 2001) = test: Secondary C. glabrata inhibition in glucose media (OD600); format: cell-based, Candida glabrata; settings: Nakaseomyces glabratus; for IC50: read-out: Growth Inhibition Activity, IC50 (μM), C. glabrata (n = 3) On glucose
From the text: (§1) Cell Lines. • Candida albicans CaCi-2; a drug-resistant clinical isolate was provided by the Whitehead Institute (Redding et al., Clin. Infect. Dis. 1994, 18(2):240-2). This strain was used for the primary assay. • Candida albicans CaCi-17; a strongly drug-resistant clinical isolate was provided by the Whitehead Institute (Redding et al., Clin. Infect. Dis. 1994, 18(2):240-2). This strain was used for the primary assay • Saccharyomyces cerevisiae W303-1a (ATCC 208352); a well-characterized Saccharomyces strain used for determination of glycolytic vs. respiratory metabolism, as well as in the mitochondrial disruption assay. • Candida glabrata (ATCC 2001); used for determination of glycolytic vs. respiratory metabolism. • NIH-3T3 mammalian fibroblasts (ATCC; CRL no.1658); used for mammalian toxicity assays. […]
(§2) Saccharomyces, while not a major human pathogen, is a useful lab model with well-developed genetic tools available. Candida glabrata is an increasingly prominent clinical problem for immune-compromised patients but with fewer genetic tools available with which to study it. These organisms can utilize alternative metabolic pathways to support growth and survival depending on the carbon source. By comparing the concentration-dependent inhibition of yeast growth in glycerol relative to glucose media, a quantitative assessment of a compound's ability to disrupt respiration can be determined. […].
(§3) Procedures • Use a Thermo Combi nL to dispense 20 μL/well of assay media into all wells. • Add 2 μL of Amphotericin B to control wells. • Pin 100 nL of test compound from compound plates into assay plates using a CyBi-Well pin tool. • Dispense 20 μL/well of culture into the assay media in all wells. • Incubate the plates in a humidified (90% humidity) Liconic incubator at 37° C. without agitation for 48 hours. • Shake plates briefly. • Read OD600 of wells on a standard plate reader as measure of relative fungal growth. Envision (Perkin Elmer) plate reader settings: Ex Photometric 600, Top read. Secondary Glucose Assay Protocol (AID 623971, 623967, 624013, 624025) Materials and Reagents
Clear, flat bottom, black 384-well plates (Corning, Catalog No. 3712BC; Lot No. 35808016); Amphotericin B (Sigma, Catalog no. A2411) 15 mM stock solution in DMSO; Pen/Strep (Gibco, Catalog No. 10378-016; Lot no21040170) 100× in PBS.
(§4) Synthetic defined growth medium. Complete Supplement Mixture; (Sunrise Science, Catalog No. 1001-100); Yeast Nitrogen Base without ammonium sulfate (MP Biomedicals, Catalog No. 4027-012); Glucose (Sigma, Catalog No. G7021). • Prepare medium by dissolving 0.79 g of Complete Supplement Mixture and 1.7 g of Yeast Nitrogen Base in 800 mL of water. • Add 20 g of glucose. Adjust final volume to 1000 mL. Filter sterilize.
(§5) Fungal Inoculum. Test Strains: C. glabrata (ATCC 2001) and Saccharomyces cerevisiae W303. • Inoculate 100 L of yeast from cryopreserved stock into a 250 mL shaker flask containing 20 mL of growth medium. Shake at 30° C. overnight (about 16 hours). • Read OD 600 of 1 mL of fungal culture in a cuvette using a standard optical density reader (Eppendorf BioPhotometer Plus), with growth medium as a background blank. • Dilute to desired volume of fungal inoculum to produce an OD600 reading of 0.005 (S. cerevisiae) or 0.004 (C. glabrata).
as §3, with “read. 4.5.” for “read.”, “Mitochondrial Disruption” for “Glucose”, “Assay” for “Assay Protocol”, “No. 624062” for “623971, 623967, 624013, 624025) Materials”, “624068)” for “Reagents”

[2] = system: Saccharomyces cerevisiae W303; test: Secondary S. cerevisiae inhibition in glycerol media (OD600); format: cell-based; settings: for pIC50 / IC50: Saccharomyces cerevisiae; for IC50: read-out: Growth Inhibition Activity, IC50 (μM), S. cerevisiae (n = 3) On glycerol
From the text: as §1, §2
Clear, flat bottom, black 384-well plates (Corning Catalog no. 3712BC; Lot no. 35808016); Amphotericin B (Sigma Catalog no. A2411) 15 mM stock solution in DMSO; Pen/Strep (Gibco Catalog no. 10378-016; Lot no21040170) 100× in PBS.
as §4, with “4027-012); Glycerol (Sigma” for “4027-012); Glucose (Sigma,”, “No. G-9012).” for “No. G7021).”, “g” for “g of”, “mL” for “mL of”, “20 mL” for “20 g”, “of glycerol.” for “of glucose.”
as §5, with “Inoculate 100 μL of yeast” for “Inoculate 100 L of yeast”, “stock into 250 mL” for “stock into a 250 mL”, “20 mL growth medium.” for “20 mL of growth medium.”
as §3

Structure (SMILES): CCOC(=O)N1C(=O)C2(CCCCC2)N(c2ccc(F)cc2)C1=S [CID 56604860, Ethyl 1-(4-fluorophenyl)-4-oxo-2-thioxo-1,3-diazaspiro[4.5]decane-3-carboxylate]
- pIC50 (Candida albicans CaCi-17; CACI17, read-out: C. albicans CaCi-17 growth inhibition IC50): 6.00
- Fold Selective (Anti-target IC50/Target IC50), fibroblast toxicity vs CaCi-17 growth inhibition (Candida albicans CaCi-17; Table 12): >37x
- pIC50 ([1]; Mus musculus, NIH3T3, read-out: Murine 3T3 fibroblasts growth inhibition (fibroblast toxicity) IC50): < 4.59
- Toxicity against mammalian fibroblasts (in words) ([1]; at concentrations up to 26 μM): no apparent toxicity
- pIC50 (C. glabrata (ATCC 2001); ATCC2001, read-out: Growth inhibition of C. glabrata on glucose IC50): < 5.52
- Reduction in potency when glucose is available instead of glycerol, S. cerevisiae [2]: greater than 250 fold
- pIC50 ([2]; W303, read-out: Growth inhibition of S. cerevisiae on glycerol IC50): 8.40
- Fold Selective (Glucose IC50/Glycerol IC50), S. cerevisiae ([2]; Table 13): >750x

Structure (SMILES): CCOC(=O)N1C(=O)C2(CCCCC2)N(c2ccc(C)cc2)C1=S [compound 3889161]
- IC50 (Candida albicans CaCi-17; CACI17, 48 h): 8.5 µM
- Growth Inhibition Activity, IC50 (μM), 3T3 Fibroblasts (n = 1) ([1]; Table 3, n = 1, 48 hours, tested up to 26 μM): Inactive
- Growth Inhibition Activity, IC50 (μM), 3T3 Fibroblasts (n = 1) ([1]; Table 4, n = 1, 48 hours, tested up to 26 μM): Inactive
- Growth Inhibition Activity, IC50 (μM), 3T3 Fibroblasts (n = 1) ([1]; Table 5, n = 1, 48 hours, tested up to 26 μM): Inactive
- Growth Inhibition Activity, IC50 (μM), 3T3 Fibroblasts (n = 1) ([1]; Table 6, n = 1, 48 hours, tested up to 26 μM): Inactive
- Growth Inhibition Activity, IC50 (μM), 3T3 Fibroblasts (n = 1) ([1]; Table 7, n = 1, 48 hours, tested up to 26 μM): Inactive
- IC50 (C. glabrata (ATCC 2001); ATCC2001, 48 h): > 3 µM
- IC50 ([2]; W303, 48 h): 0.011 µM

- IC50 (Candida albicans CaCi-17; CACI17, Table 4, n = 3, 48 hours, tested up to 26 μM): 8.2 µM
- IC50 (C. glabrata (ATCC 2001); ATCC2001, Table 8, n = 3, glucose media, 48 hours, tested up to 3 μM): > 3 µM
- IC50 ([2]; W303, Table 8, n = 3, glycerol media, 48 hours, tested up to 3 μM): 0.019 µM
Structure (SMILES): CCOC(=O)N1C(=O)C2(CCCCC2)N(c2cccc(C)c2)C1=S [compound 56604823]
- IC50 ([1]; Mus musculus, NIH3T3, read-out: Growth Inhibition Activity, IC50 (μM), 3T3 Fibroblasts (n = 1), Table 4, n = 1, 48 hours, tested up to 26 μM): 24.2 µM

Structure (SMILES): C/C=C/C1[C@H]2C[C@@H](C)CC[C@@H]2C(C)=C[C@H]1C(=O)c1c(O)c(-c2ccc(O)cc2)c[nH]c1=O (stereo partly drawn) [ilicicolin H, reference compound]
- pIC50 (Candida albicans CaCi-17; CACI17, Tables 9, 10, 12, AID 623897, read-out: C. albicans CaCi-17 growth inhibition IC50): < 5.52
- pIC50 ([1]; Mus musculus, NIH3T3, Tables 9, 10, 12, AID 602394, read-out: Murine 3T3 fibroblasts growth inhibition (fibroblast toxicity) IC50): 5.00
- pIC50 (C. glabrata (ATCC 2001); ATCC2001, figure legends and Tables 9, 10, 13, AID 623967, read-out: Growth inhibition of C. glabrata on glucose IC50): < 5.52
- pIC50 ([2]; W303, figure legends and Tables 9, 10, 13, AID 623969, read-out: Growth inhibition of S. cerevisiae on glycerol IC50): 7.52
